Experimental data taken from patent US10654884B2 (Vitae Pharmaceuticals, Inc., priority 2014, dated 2020).
Read-outs that look alike come from different tables or passages of the source.

How the values were obtained:
[1] = molecular target: T1, CD73 on U138 neuroglioma cells (Homo sapiens, UniProt P21589); assay: Inhibition of Ecto-5′-Nucleotidase Activity in U138 Neuroglioma Cells (Assay 2); type: cell-based
T1 construct: U138 neuroglioma cells, which express CD73 on their surface; endogenous in cells; host or cells: U138 neuroglioma cells (ATCC)
T1 sequence (P21589 27-549): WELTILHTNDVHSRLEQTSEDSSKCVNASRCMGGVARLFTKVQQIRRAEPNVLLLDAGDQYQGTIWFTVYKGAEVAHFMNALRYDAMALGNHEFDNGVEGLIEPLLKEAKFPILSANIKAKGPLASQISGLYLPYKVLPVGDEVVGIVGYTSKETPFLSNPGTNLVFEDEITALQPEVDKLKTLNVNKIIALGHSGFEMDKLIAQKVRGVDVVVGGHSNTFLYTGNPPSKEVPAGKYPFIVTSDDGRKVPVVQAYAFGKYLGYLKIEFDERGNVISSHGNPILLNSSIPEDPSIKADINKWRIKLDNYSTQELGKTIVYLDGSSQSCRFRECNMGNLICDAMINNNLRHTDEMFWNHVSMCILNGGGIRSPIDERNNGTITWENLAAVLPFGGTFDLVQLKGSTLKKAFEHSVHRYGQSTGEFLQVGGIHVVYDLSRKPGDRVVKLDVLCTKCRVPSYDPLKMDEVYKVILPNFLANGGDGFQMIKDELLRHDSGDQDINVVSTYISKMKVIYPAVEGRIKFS
Experimental: Inhibition of Ecto-5′-Nucleotidase Activity in U138 Neuroglioma Cells (Assay 2)
U138 cells were obtained from the American Type Culture Collection (ATCC) (Manassas, Va.), and cultured in complete growth media (DMEM, 10% FBS, 1 mM L-glutamine, 100 U penicillin-streptomycin) at 37° C., 5% CO2. The day before the experiment, cells were seeded at 2,500 cells/well in 100 μL of complete media into 96-well plates. Cells were washed twice with 200 μL of assay buffer (20 mM HEPES, pH 7.4, 137 mM NaCl, 5.4 mM KCl, 1.3 mM CaCl2, 4.2 mM NaHCO3, 1 mg/mL glucose) to remove residual inorganic phosphate. After washing, assays contained serial dilutions of test compounds and 50 μM of cytidine-5′-monophosphate (CMP) in a total volume of 200 μL of assay buffer, with a final DMSO concentration ≤0.1%. After 2 hr at 37° C., 5% CO2, 100 μL of supernatant was removed from the cells and the concentration of inorganic phosphate was determined using malachite green reagent. IC50 values for test compounds were determined from nonlinear regression fits of the data using XLfit (IDBS).

human CD73 = molecular target: T2, human CD73 (Homo sapiens, UniProt P21589); assay: Inhibition of 5′-Nucleotidase Activity of CD73 (Assay 1); type: biochemical; conditions: human CD73 4 ng/ml, 50 μM CMP, 20 min at RT, malachite green readout; read-out: Assay 1: IC50, inhibition of 5′-nucleotidase activity of CD73
T2 construct: purchased R&D Systems 5795-EN-010
T2 sequence (P21589 27-549): T1 sequence (P21589 27-549)
Experimental: Inhibition of 5′-Nucleotidase Activity of CD73 (Assay 1)
Compounds of the present invention were tested for the ability to inhibit CD73 enzyme activity. Tested compounds were dissolved in DMSO (50× final concentration), and 3.2 μL of the solutions added to 96-well polystyrene plates. To these wells were added, 100 μL of human CD73 (R&D Systems Cat. No. 5795-EN-010) and 57 μL of cytidine-5′-monophosphate (CMP) solutions in assay buffer (25 mM Tris-HCl, pH 7.4, 0.005% Brij-35) were added to achieve final concentrations in the assay of 4 ng/ml CD73 and 50 μM of CMP. The assay mixture was incubated for 20 min at RT. The reaction was stopped by addition of 40 μL of malachite green reagent which was prepared by mixing together 10 ml 2M H2SO4, 2.5 ml of 15% ammonium molybdate and 0.2 ml of 11% Tween-20. The mixture was agitated vigorously for 10 min at RT, and absorbance at 620 nm was determined on a microplate spectrophotometer. […] The IC50 values were derived using a non-linear 4 parameter logistic model (XLFit software, IDBS) and correspond to the inflection points on dose-response curves.

[2] = 50 μM CMP, 2 hr at 37° C., malachite green readout, read-out: Assay 2: IC50, inhibition of ecto-5′-nucleotidase activity in U138 neuroglioma cells

SMILES	IC50 [1, 2]	IC50 (human CD73)	IC50 ([1]; IC50 value for APCP (standard), standard in each experiment, typical range)
CCOC(=O)[C@H](OC[C@H]1O[C@@H](n2cnc3c(N)nc(Cl)nc32)[C@H](O)[C@@H]1O)P(=O)(O)O (single isomer, unassigned) [1, isomer 1]	< 100 nM	< 100 nM	
CCOC(=O)[C@@H](OC[C@H]1O[C@@H](n2cnc3c(N)nc(Cl)nc32)[C@H](O)[C@@H]1O)P(=O)(O)O (single isomer, unassigned) [1, isomer 2]	100 to 1000 nM	100 to 1000 nM	
CCOC(=O)[C@](C)(OC[C@H]1O[C@@H](n2cnc3c(N)nc(Cl)nc32)[C@H](O)[C@@H]1O)P(=O)(O)O (single isomer, unassigned) [Example 9]	100 to 1000 nM	< 100 nM	
CS(=O)(=O)C(OC[C@H]1O[C@@H](n2cnc3c(N)nc(Cl)nc32)[C@H](O)[C@@H]1O)P(=O)(O)O (single isomer, unassigned) [Example 10]	100 to 1000 nM	100 to 1000 nM	
CCS(=O)(=O)C(OC[C@H]1O[C@@H](n2cnc3c(N)nc(Cl)nc32)[C@H](O)[C@@H]1O)P(=O)(O)O (single isomer, unassigned) [Example 11]	100 to 1000 nM	< 100 nM	
CCCS(=O)(=O)[C@H](OC[C@H]1O[C@@H](n2cnc3c(N)nc(Cl)nc32)[C@H](O)[C@@H]1O)P(=O)(O)O (single isomer, unassigned) [Example 12]	100 to 1000 nM	< 100 nM	
CC(C)CS(=O)(=O)[C@H](OC[C@H]1O[C@@H](n2cnc3c(N)nc(Cl)nc32)[C@H](O)[C@@H]1O)P(=O)(O)O (single isomer, unassigned) [Example 13]	100 to 1000 nM	< 100 nM	
CC(C)COC(=O)[C@H](OC[C@H]1O[C@@H](n2cnc3c(N)nc(Cl)nc32)[C@H](O)[C@@H]1O)P(=O)(O)O (single isomer, unassigned) [Example 14]	< 100 nM	< 100 nM	
CC(C)(C)OC(=O)[C@H](OC[C@H]1O[C@@H](n2cnc3c(N)nc(Cl)nc32)[C@H](O)[C@@H]1O)P(=O)(O)O (single isomer, unassigned) [Example 15]	< 100 nM	< 100 nM	
Nc1nc(Cl)nc2c1ncn2[C@@H]1O[C@H](CO[C@@H](C(=O)OCc2ccccc2)P(=O)(O)O)[C@@H](O)[C@H]1O (single isomer, unassigned) [Example 16]	< 100 nM	< 100 nM	
CC(C)CNC(=O)[C@H](OC[C@H]1O[C@@H](n2cnc3c(N)nc(Cl)nc32)[C@H](O)[C@@H]1O)P(=O)(O)O (single isomer, unassigned) [Example 17]	< 100 nM	< 100 nM	
CCNC(=O)[C@H](OC[C@H]1O[C@@H](n2cnc3c(N)nc(Cl)nc32)[C@H](O)[C@@H]1O)P(=O)(O)O (single isomer, unassigned) [Example 18]	100 to 1000 nM	< 100 nM	
CC(C)(C)NC(=O)[C@H](OC[C@H]1O[C@@H](n2cnc3c(N)nc(Cl)nc32)[C@H](O)[C@@H]1O)P(=O)(O)O (single isomer, unassigned) [Example 19]	< 100 nM	< 100 nM	
Cc1nnc(C(OC[C@H]2O[C@@H](n3cnc4c(N)nc(Cl)nc43)[C@H](O)[C@@H]2O)P(=O)(O)O)o1 (single isomer, unassigned) [Example 21]	100 to 1000 nM	< 100 nM	
CCOC(=O)[C@H](OC[C@H]1O[C@@H](n2cnc3c(NC4CC4)nc(Cl)nc32)[C@H](O)[C@@H]1O)P(=O)(O)O (single isomer, unassigned) [Example 22]	< 100 nM	< 100 nM	
CCOC(=O)[C@H](OC[C@H]1O[C@@H](n2cnc3c(NC)nc(Cl)nc32)[C@H](O)[C@@H]1O)P(=O)(O)O (single isomer, unassigned) [Example 23]	< 100 nM	< 100 nM	
Nc1ncnc2c1ncn2[C@@H]1O[C@H](COP(=O)(O)CP(=O)(O)O)[C@@H](O)[C@H]1O [APCP, adenosine 5′-(α,β-methylene)diphosphate, reference compound]			12 to 25 nM
CC(C)Nc1ncnc2c1ncn2[C@@H]1O[C@H](COC(C(=O)O)P(=O)(O)O)[C@@H](O)[C@H]1O (stereo partly drawn) [Example 64, 2-(((2R,3S,4R,5R)-3,4-dihydroxy-5-(6-(isopropylamino)-9H-purin-9-yl)tetrahydrofuran-2-yl)methoxy)-2-phosphonoacetic acid]		> 1000 nM	
O=C(O)C(OC[C@H]1C[C@@H](n2cnc3cccc(Cl)c3c2=O)[C@H](O)[C@@H]1O)P(=O)(O)O (stereo partly drawn) [Example 71, 2-(((1R,2R,3S,4R)-4-(5-chloro-4-oxoquinazolin-3(4H)-yl)-2,3-dihydroxycyclopentyl)methoxy)-2-phosphonoacetic acid]		> 1000 nM	
O=C(O)C(OC[C@H]1C[C@@H](n2cnc3cccc(Cl)c3c2=O)[C@H](O)[C@@H]1O)C(=O)O [Example 74, 2-(((1R,2R,3S,4R)-4-(5-chloro-4-oxoquinazolin-3(4H)-yl)-2,3-dihydroxycyclopentyl)methoxy)malonic acid]		> 1000 nM	
CCNC(=O)C(OC[C@H]1C[C@@H](n2cnc3c(NCC)ncnc32)[C@H](O)[C@@H]1O)P(=O)(O)O (stereo partly drawn) [Example 75, (2-(ethylamino)-1-(((1R,2R,3S,4R)-4-(6-(ethylamino)-9H-purin-9-yl)-2,3-dihydroxycyclopentyl)methoxy)-2-oxoethyl)phosphonic Acid]		> 1000 nM	

Continued, in another order:

IC50 [1, 2]	IC50 (human CD73)	SMILES	IC50 ([1]; IC50 value for APCP (standard), standard in each experiment, typical range)
100 to 1000 nM	100 to 1000 nM	CCOC(=O)[C@@](C)(OC[C@H]1O[C@@H](n2cnc3c(N)nc(Cl)nc32)[C@H](O)[C@@H]1O)P(=O)(O)O (single isomer, unassigned) [Example 9a]	
> 1000 nM	100 to 1000 nM	CCS(=O)(=O)C(OC[C@H]1O[C@@H](n2cnc3c(N)nc(Cl)nc32)[C@H](O)[C@@H]1O)P(=O)(O)O (single isomer, unassigned) [Example 11a]	
100 to 1000 nM	100 to 1000 nM	CC(C)COC(=O)[C@@H](OC[C@H]1O[C@@H](n2cnc3c(N)nc(Cl)nc32)[C@H](O)[C@@H]1O)P(=O)(O)O (single isomer, unassigned) [Example 14a]	
100 to 1000 nM	100 to 1000 nM	CC(C)(C)OC(=O)[C@@H](OC[C@H]1O[C@@H](n2cnc3c(N)nc(Cl)nc32)[C@H](O)[C@@H]1O)P(=O)(O)O (single isomer, unassigned) [Example 15a]	
< 100 nM	100 to 1000 nM	CC(C)CNC(=O)[C@@H](OC[C@H]1O[C@@H](n2cnc3c(N)nc(Cl)nc32)[C@H](O)[C@@H]1O)P(=O)(O)O (single isomer, unassigned) [Example 17a]	
< 100 nM	100 to 1000 nM	CCNC(=O)[C@@H](OC[C@H]1O[C@@H](n2cnc3c(N)nc(Cl)nc32)[C@H](O)[C@@H]1O)P(=O)(O)O (single isomer, unassigned) [Example 18a]	
100 to 1000 nM	100 to 1000 nM	CC(C)(C)NC(=O)[C@@H](OC[C@H]1O[C@@H](n2cnc3c(N)nc(Cl)nc32)[C@H](O)[C@@H]1O)P(=O)(O)O (single isomer, unassigned) [Example 19a]	
> 1000 nM	100 to 1000 nM	Cc1nnc(C(OC[C@H]2O[C@@H](n3cnc4c(N)nc(Cl)nc43)[C@H](O)[C@@H]2O)P(=O)(O)O)o1 (single isomer, unassigned) [Example 21a]	
100 to 1000 nM	100 to 1000 nM	CCOC(=O)[C@@H](OC[C@H]1O[C@@H](n2cnc3c(NC4CC4)nc(Cl)nc32)[C@H](O)[C@@H]1O)P(=O)(O)O (single isomer, unassigned) [Example 22a]	
